Converted amounts (≈) assume the structure as drawn.
Key:
[1] = system: Escherichia coli (PD-04863); assay: Microtiter dilution MIC, Escherichia coli (PD-04863); format: cell-based; conditions: Mueller-Hinton broth, 37° C., 16-24 hours, read-out: Minimal Inhibitory Concentration
Protocol: (§1) The compounds of the present invention and their pharmaceutically acceptable salts are useful as antimicrobial agents. The antimicrobial activity of the representative examples of compounds in accordance with the present invention against five species of gram-negative bacteria, seven species of gram-positive bacteria, four species of yeast, and two species of fungi were determined using the microtiter dilution technique. This method is described by T. B. Conrath, "Handbook of Microtiter Procedures," Dynatech Corp., Cambridge, Mass., USA (1972); and T. L. Gavan et al, "Microdilution Test Procedures," in Manual of Clinical Microbiology, E. H. Lennette, Ed., American Soc. for Microbiol., Washington, D.C., U.S.A. (1980).
(§2) Each agent is suspended in a nonaqueous solvent for several minutes to sterilize the compound or, if the compound is completely soluble in water, the aqueous solution is sterilized by passage through a 0.2-0.45 micrometer membrane filter.
(§3) Each well of a sterile 96-well microdilution tray is filled under aseptic conditions with 0.1 ml of Mueller-Hinton broth (for antibacterial tests), or yeast extract-peptone-dextrose or buffered supplemented yeast nitrogen base (for tests with yeasts or fungi).
(§4) […] of the test compound solution is added to each of the eight wells in the first row of the tray. A microdilutor apparatus is used to simultaneously mix the contents of these wells and to transfer aliquots to each succeeding row of cells to obtain a range of serially diluted solutions. The last row of wells is untreated and serves as a control.
(§5) Each well containing broth and test compound is inoculated with about ten microliters of inoculum of the test microorganism. One well in the last row of wells (which is free of test compound) is not inoculated and is used as a sterility control The trays are sealed and incubated at 37° C. for 16-24 hours (for bacteria) or at 28° C. for 36-48 hours (yeasts or fungi). During incubation, the inoculated medium is shaken at 100-140 rpm to increase contact between the microorganism cells and test compounds.
(§6) After the incubation period, each plate is evaluated by determining the lowest concentration of test compound required to inhibit the growth of the microorganism and recorded as a minimal inhibitory concentration (MIC).

Salmonella typhimurium = assay: Microtiter dilution MIC, Salmonella typhimurium; format: cell-based; conditions: Salmonella enterica, Mueller-Hinton broth, 37° C., 16-24 hours, read-out: Minimal Inhibitory Concentration
Protocol: as §1, §2, §3, §4, §5, §6

Alcaligenes viscolactis = assay: Microtiter dilution MIC, Alcaligenes viscolactis; format: cell-based; conditions: Mueller-Hinton broth, 37° C., 16-24 hours, read-out: Minimal Inhibitory Concentration
Protocol: as §1, §2, §3, §4, §5, §6

Branhamella catarrhalis = assay: Microtiter dilution MIC, Branhamella catarrhalis; format: cell-based; conditions: Moraxella catarrhalis; Mueller-Hinton broth, 37° C., 16-24 hours; read-out: Minimal Inhibitory Concentration
Protocol: as §1, §2, §3, §4, §5, §6

Pseudomonas aeruginosa = assay: Microtiter dilution MIC, Pseudomonas aeruginosa; format: cell-based; conditions: Mueller-Hinton broth, 37° C., 16-24 hours, read-out: Minimal Inhibitory Concentration
Protocol: as §1, §2, §3, §4, §5, §6

Micrococcus luteus = assay: Microtiter dilution MIC, Micrococcus luteus; format: cell-based; conditions: Mueller-Hinton broth, 37° C., 16-24 hours, read-out: Minimal Inhibitory Concentration
Protocol: as §1, §2, §3, §4, §5, §6

Staphylococcus aureus = assay: Microtiter dilution MIC, Staphylococcus aureus; format: cell-based; conditions: Mueller-Hinton broth, 37° C., 16-24 hours, read-out: Minimal Inhibitory Concentration
Protocol: as §1, §2, §3, §4, §5, §6

Streptococcus pyogenes = assay: Microtiter dilution MIC, Streptococcus pyogenes; format: cell-based; conditions: Mueller-Hinton broth, 37° C., 16-24 hours, read-out: Minimal Inhibitory Concentration
Protocol: as §1, §2, §3, §4, §5, §6

Streptococcus pneumoniae = assay: Microtiter dilution MIC, Streptococcus pneumoniae; format: cell-based; conditions: Mueller-Hinton broth, 37° C., 16-24 hours, read-out: Minimal Inhibitory Concentration
Protocol: as §1, §2, §3, §4, §5, §6

Streptococcus faecalis = assay: Microtiter dilution MIC, Streptococcus faecalis; format: cell-based; conditions: Enterococcus faecalis; Mueller-Hinton broth, 37° C., 16-24 hours; read-out: Minimal Inhibitory Concentration
Protocol: as §1, §2, §3, §4, §5, §6

Bacillus cereus = assay: Microtiter dilution MIC, Bacillus cereus; format: cell-based; conditions: Mueller-Hinton broth, 37° C., 16-24 hours, read-out: Minimal Inhibitory Concentration
Protocol: as §1, §2, §3, §4, §5, §6

Bacillus megaterium = assay: Microtiter dilution MIC, Bacillus megaterium; format: cell-based; conditions: Priestia megaterium; Mueller-Hinton broth, 37° C., 16-24 hours; read-out: Minimal Inhibitory Concentration
Protocol: as §1, §2, §3, §4, §5, §6

Saccharomyces cerevisiae = assay: Microtiter dilution MIC, Saccharomyces cerevisiae; format: cell-based; conditions: yeasts or fungi, 28° C., 36-48 hours, read-out: Minimal Inhibitory Concentration
Protocol: as §1, §2, §3, §4, §5, §6

[2] = system: Schizosaccharomyces pombe; assay: Microtiter dilution MIC, Schizosaccharomyces pombe; format: cell-based; conditions: yeasts or fungi, 28° C., 36-48 hours, read-out: Minimal Inhibitory Concentration
Protocol: as §1, §2, §3, §4, §5, §6

Rhodotorula aurantiaca = assay: Microtiter dilution MIC, Rhodotorula aurantiaca; format: cell-based; conditions: Buckleyzyma aurantiaca; yeasts or fungi, 28° C., 36-48 hours; read-out: Minimal Inhibitory Concentration
Protocol: as §1, §2, §3, §4, §5, §6

Torulopsis albida = assay: Microtiter dilution MIC, Torulopsis albida; format: cell-based; conditions: Naganishia albida; yeasts or fungi, 28° C., 36-48 hours; read-out: Minimal Inhibitory Concentration
Protocol: as §1, §2, §3, §4, §5, §6

Mucor paraciticus = assay: Microtiter dilution MIC, Mucor paraciticus; format: cell-based; conditions: yeasts or fungi, 28° C., 36-48 hours, read-out: Minimal Inhibitory Concentration
Protocol: as §1, §2, §3, §4, §5, §6

Rhizopus japonicus = assay: Microtiter dilution MIC, Rhizopus japonicus; format: cell-based; conditions: yeasts or fungi, 28° C., 36-48 hours, read-out: Minimal Inhibitory Concentration
Protocol: as §1, §2, §3, §4, §5, §6

[3] = system: L1210 murine leukemia cell line; assay: Cytotoxic activity against L1210 murine leukemia in vitro; format: cell-based; conditions: Mus musculus, 50% inhibition of growth, duplicate tests
Protocol: The antineoplastic activities of representative compounds of the present invention against the L1210 murine leukemia cell line in vitro were determined using the methods detailed by R. I. Geran et al, "Protocols for Screening Chemical Agents and Natural Products Against Animal Tumors and Other Biological Systems," 3rd Edition, Cancer Chemotherapy Reports, Part 3, Vol. 3, pages 1-87 (1972) which is incorporated herein by reference.
The IC50 values are the concentration of compound required to produce 50% inhibition of growth of the cell line.

P388 leukemia cell line = assay: In vivo antineoplastic activity against transplanted P388 leukemia in mice; conditions: Days 1-9
Protocol: The in vivo antineoplastic activity of representative compounds of the present invention against the transplanted P388 leukemia cell line in mice was determined in accordance with the protocol given in Geran et al, cited above. The mice were infected intraperitoneally on Day 0 and then administered the indicated doses of the test compounds on Days 1-9.

SMILES: CN(C)CCNC(=O)c1ccc(O)c2nc3c(C=O)c(O)cc(O)c3nc12 [Example 14, N-[2-(dimethylamino)ethyl]-6-formyl-4,7,9-trihydroxy-1-phenazinecarboxamide]
- MIC [1]: 111 µg/mL (≈ 300 µM)
- MIC (Salmonella typhimurium): 111 µg/mL (≈ 300 µM)
- MIC (Alcaligenes viscolactis): 12.3 µg/mL (≈ 33.2 µM)
- MIC (Branhamella catarrhalis): 12.3 µg/mL (≈ 33.2 µM)
- MIC (Pseudomonas aeruginosa): 1000 µg/mL (≈ 2700 µM)
- MIC (Micrococcus luteus): 111 µg/mL (≈ 300 µM)
- MIC (Staphylococcus aureus): 37 µg/mL (≈ 99.9 µM)
- MIC (Streptococcus pyogenes): 111 µg/mL (≈ 300 µM)
- MIC (Streptococcus pneumoniae): 111 µg/mL (≈ 300 µM)
- MIC (Streptococcus faecalis): 111 µg/mL (≈ 300 µM)
- MIC (Bacillus cereus): 37 µg/mL (≈ 99.9 µM)
- MIC (Bacillus megaterium): 111 µg/mL (≈ 300 µM)
- MIC (Saccharomyces cerevisiae): > 1000 µg/mL
- MIC [2]: 111 µg/mL (≈ 300 µM)
- MIC (Rhodotorula aurantiaca): 37 µg/mL (≈ 99.9 µM)
- MIC (Torulopsis albida): 333 µg/mL (≈ 899 µM)
- MIC (Mucor paraciticus): 333 µg/mL (≈ 899 µM)
- MIC (Rhizopus japonicus): 333 µg/mL (≈ 899 µM)

SMILES: Cc1c(O)c(C=O)c2nc3c(O)ccc(C(=O)O)c3nc2c1O [Example 11, 6-formyl-4,7,9-trihydroxy-8-methyl-1-phenazinecarboxylic acid]
- MIC [1]: 111 µg/mL (≈ 353 µM)
- MIC (Salmonella typhimurium): 111 µg/mL (≈ 353 µM)
- MIC (Alcaligenes viscolactis): 12.3 µg/mL (≈ 39.1 µM)
- MIC (Branhamella catarrhalis): 12.3 µg/mL (≈ 39.1 µM)
- MIC (Pseudomonas aeruginosa): 1000 µg/mL (≈ 3180 µM)
- MIC (Micrococcus luteus): 111 µg/mL (≈ 353 µM)
- MIC (Staphylococcus aureus): 37 µg/mL (≈ 118 µM)
- MIC (Streptococcus pyogenes): 111 µg/mL (≈ 353 µM)
- MIC (Streptococcus pneumoniae): 111 µg/mL (≈ 353 µM)
- MIC (Streptococcus faecalis): 111 µg/mL (≈ 353 µM)
- MIC (Bacillus cereus): 37 µg/mL (≈ 118 µM)
- MIC (Bacillus megaterium): 111 µg/mL (≈ 353 µM)
- MIC (Saccharomyces cerevisiae): 111 µg/mL (≈ 353 µM)
- MIC [2]: 37 µg/mL (≈ 118 µM)
- MIC (Rhodotorula aurantiaca): 12.3 µg/mL (≈ 39.1 µM)
- MIC (Torulopsis albida): 111 µg/mL (≈ 353 µM)
- MIC (Mucor paraciticus): 37 µg/mL (≈ 118 µM)
- MIC (Rhizopus japonicus): 37 µg/mL (≈ 118 µM)
- IC50 [3]: 3.47 µg/mL (≈ 11 µM)

SMILES: COC(=O)c1ccc(O)c2nc3c(C=O)c(O)c(C)c(O)c3nc12 [Example 3, 6-formyl-4,7,9-trihydroxy-8-methyl-1-phenazinecarboxylic acid, methyl ester]
- MIC [1]: > 1000 µg/mL
- MIC (Salmonella typhimurium): 1000 µg/mL (≈ 3050 µM)
- MIC (Alcaligenes viscolactis): 333 µg/mL (≈ 1010 µM)
- MIC (Branhamella catarrhalis): 111 µg/mL (≈ 338 µM)
- MIC (Pseudomonas aeruginosa): > 1000 µg/mL
- MIC (Micrococcus luteus): 111 µg/mL (≈ 338 µM)
- MIC (Staphylococcus aureus): > 1000 µg/mL
- MIC (Streptococcus pyogenes): 111 µg/mL (≈ 338 µM)
- MIC (Streptococcus pneumoniae): < 0.46 µg/mL
- MIC (Streptococcus faecalis): 1000 µg/mL (≈ 3050 µM)
- MIC (Bacillus cereus): 333 µg/mL (≈ 1010 µM)
- MIC (Bacillus megaterium): 1000 µg/mL (≈ 3050 µM)
- MIC (Saccharomyces cerevisiae): > 1000 µg/mL
- MIC [2]: > 1000 µg/mL
- MIC (Rhodotorula aurantiaca): > 1000 µg/mL
- MIC (Torulopsis albida): 1000 µg/mL (≈ 3050 µM)
- MIC (Mucor paraciticus): 1000 µg/mL (≈ 3050 µM)
- MIC (Rhizopus japonicus): > 1000 µg/mL
- IC50 [3]: 0.17 µg/mL (≈ 0.518 µM)
- % T/C (P388 leukemia cell line; 3.12 mg/kg/injection): 119%
- % T/C (P388 leukemia cell line; 6.25 mg/kg/injection): 130%
- % T/C (P388 leukemia cell line; 12.5 mg/kg/injection): 149%
- % T/C (P388 leukemia cell line; 25 mg/kg/injection): Toxic

SMILES: Cc1c(O)c(C=O)c2nc3c(O)ccc(C(=O)NCCN(C)C)c3nc2c1O [Example 8, N-[2-(dimethylamino)ethyl]-6-formyl-4,7,9-trihydroxy-8-methyl-1-phenazinecarboxamide]
- MIC [1]: 1000 µg/mL (≈ 2600 µM)
- MIC (Salmonella typhimurium): 111 µg/mL (≈ 289 µM)
- MIC (Alcaligenes viscolactis): 4.1 µg/mL (≈ 10.7 µM)
- MIC (Branhamella catarrhalis): 4.1 µg/mL (≈ 10.7 µM)
- MIC (Pseudomonas aeruginosa): > 1000 µg/mL
- MIC (Micrococcus luteus): 1000 µg/mL (≈ 2600 µM)
- MIC (Staphylococcus aureus): 1000 µg/mL (≈ 2600 µM)
- MIC (Streptococcus pyogenes): 1000 µg/mL (≈ 2600 µM)
- MIC (Streptococcus pneumoniae): 1000 µg/mL (≈ 2600 µM)
- MIC (Streptococcus faecalis): > 1000 µg/mL
- MIC (Bacillus cereus): 37 µg/mL (≈ 96.3 µM)
- MIC (Bacillus megaterium): 1000 µg/mL (≈ 2600 µM)
- MIC (Saccharomyces cerevisiae): > 1000 µg/mL
- MIC [2]: > 1000 µg/mL
- MIC (Rhodotorula aurantiaca): > 1000 µg/mL
- MIC (Torulopsis albida): > 1000 µg/mL
- MIC (Mucor paraciticus): > 1000 µg/mL
- MIC (Rhizopus japonicus): > 1000 µg/mL
- IC50 [3]: 0.24 µg/mL (≈ 0.624 µM)
- % T/C (P388 leukemia cell line; 3.12 mg/kg/injection): 113%
- % T/C (P388 leukemia cell line; 6.25 mg/kg/injection): 129%
- % T/C (P388 leukemia cell line; 12.5 mg/kg/injection): 146%
- % T/C (P388 leukemia cell line; 25 mg/kg/injection): 205%
